How the values were obtained:
[1] = target: T1, PDE3A catalytic domain (PDE3Acat) (Homo sapiens, UniProt Q14432); assay: Inhibition of phosphodiesterase activity, [3H]-cAMP hydrolysis, recombinant PDE3Acat; type: biochemical; settings: human recombinant PDE3Acat, cAMP 2 μmol/L; read-out: IC50(μmol/L) PDE3
T1 construct: cDNA fragments of PDE3A catalytic domain (indicated as “cat,” hereinafter); made in house; host or cells: Sf9 insect cells (baculovirus, Bac-to-Bac)
Method: (§1) RT-PCR was performed to isolate cDNA fragments of PDE3A catalytic domain (indicated as “cat,” hereinafter), PDE4Bcat, PDE5Acat and PDE10A1 from human RNA. Using Gateway system (Invitrogen) and Bac-to-Bac (registered trademark) Baculovirus Expression system (Invitrogen), the isolated cDNA fragments were transfected into Sf9 insect cells for expression of the PDE proteins. The recombinant PDE3Acat, PDE4Bcat, PDE5Acat and PDE10A1 proteins were isolated from culture supernatant or cell extracts of Sf9 cells expressed high levels of these proteins by ion-exchange chromatography and used for the following experiments.
(§2) 4 mmol/L solution of each test compound was serially diluted 4-fold with 15% DMSO solution to prepare the solutions with concentrations of 15 nmol/L to 4 mmol/L (final concentrations=1.5 nmol/L-400 μmol/L). 10 μL of each test compound solution was added to each well of 96 plate with 10 μL of [^3H]-cAMP or [^3H]-cGMP solution, diluted with a buffer (40 mmol/L Tris-HCl (pH 7.4), 10 mmol/L MgCl2) to the concentration shown in Table 20 and 40 μL of each of the human recombinant PDE proteins in units shown in Table 20. The plate was incubated at 30° C. for 20 min, and then at 65° C. for 2 min. Subsequently, 25 μL of 1 mg/mL 5′-nucleotidase (Crotalus atrox venom, Sigma) was added to each well and the plate was incubated at 30° C. for 10 min. 200 μL of Dowex solution (300 mg/mL Dowex 1×8-400 (Sigma Aldrich), 33% ethanol) was then added to each well and the plate was shaken at 4° C. for 20 min. Subsequently, 200 μL of MicroScint 20 (Packard) was added to each well and the radioactivity of each sample was measured by a scintillation counter (Topcount, Packard) IC50 was calculated by GraphPad Prism v3.03 (GraphPad Software).

[2] = target: T2, PDE4Bcat (Homo sapiens, UniProt Q07343); assay: Inhibition of phosphodiesterase activity, [3H]-cAMP hydrolysis, recombinant PDE4Bcat; type: biochemical; settings: cAMP 2 μmol/L, read-out: IC50(μmol/L) PDE4
T2 construct: catalytic domain (indicated as “cat,” hereinafter), PDE4Bcat; made in house; host or cells: Sf9 insect cells (baculovirus, Bac-to-Bac)
T2 sequence (Q07343 330-659 limits assumed): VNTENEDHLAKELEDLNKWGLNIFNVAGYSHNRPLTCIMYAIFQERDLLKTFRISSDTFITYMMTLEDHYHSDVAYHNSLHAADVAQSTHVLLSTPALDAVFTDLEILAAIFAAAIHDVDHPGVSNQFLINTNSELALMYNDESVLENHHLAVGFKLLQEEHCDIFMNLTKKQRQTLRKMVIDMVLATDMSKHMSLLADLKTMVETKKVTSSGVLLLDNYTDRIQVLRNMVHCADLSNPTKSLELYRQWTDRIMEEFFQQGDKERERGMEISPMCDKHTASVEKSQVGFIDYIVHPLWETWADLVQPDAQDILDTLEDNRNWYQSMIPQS
Method: as §1, §2

[3] = tested on: histamine-induced bronchoconstriction; assay: Histamine-induced bronchoconstriction in guinea pigs; type: in vivo, guinea pig; settings: Cavia porcellus, iv, 0.5 min, 30 seconds after administration, histamine 12.5 μg/kg i.v.; for inhibition in vivo at 0.1 mg/kg: values in brackets: test compound 0.1 mg/kg, i.v.
Method: Guinea pigs were anesthetized with pentobarbital (30 mg/kg, i.p.). A cannula for IV administeration, a cannula for collecting blood and measurement of blood pressure and a trachea cannula were inserted into the left exterior jugular vein, right interior carotid artery and trachea, respectively. The animals were placed under artificial respiration at 60 times/min and 10 mL/kg/stroke. The airflow through the branch of the tracheal cannula was measured by a bronchospasm transducer (Ugo-Basile) and recorded on a computer via Power Lab (ADInstruments Japan). The animals were immobilized with gallamine (10 mg/kg, i.v.), then administered histamine at 10-minute intervals (12.5 μg/kg, i.v.). […] To examine the inhibitory activity of test compound, the histamine-induced bronchoconstriction was measured after 30 seconds of drug administration. The bronchoconstriction was recorded as the change of the airflow: The results were shown by percentages of the maximum histamine-induced bronchoconstriction. Each test compound was prepared as a 10 mg/mL solution in DMSO. Gallamine was prepared as a 10 mg/mL solution in physiological saline. Histamine was prepared as a 1 mg/mL solution in physiological saline, which was diluted with physiological saline to 62.5 μg/mL for use.

T1 sequence (Q14432 674-1093 limits assumed): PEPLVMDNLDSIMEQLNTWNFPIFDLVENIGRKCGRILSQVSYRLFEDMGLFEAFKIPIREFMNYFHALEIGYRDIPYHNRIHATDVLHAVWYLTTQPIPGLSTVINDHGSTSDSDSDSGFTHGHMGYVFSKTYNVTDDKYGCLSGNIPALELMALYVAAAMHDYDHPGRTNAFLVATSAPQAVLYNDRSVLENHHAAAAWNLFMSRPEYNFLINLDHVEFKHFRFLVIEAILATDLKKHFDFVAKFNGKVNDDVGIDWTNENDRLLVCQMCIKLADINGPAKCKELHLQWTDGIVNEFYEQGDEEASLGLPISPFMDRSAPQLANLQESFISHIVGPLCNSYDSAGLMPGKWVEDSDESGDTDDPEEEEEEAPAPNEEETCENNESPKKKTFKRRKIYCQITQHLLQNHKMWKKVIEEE

| Structure (SMILES) | IC50 [1] [µmol/L] | IC50 [2] [µmol/L] | inhibition in vivo at 0.1 mg/kg [3] [%] | inhibition in vivo at 1 mg/kg ([3]; test compound 1 mg/kg i.v.) [%] |
| --- | --- | --- | --- | --- |
| CCc1cc2c(C3=NNC(=O)CC3C)ccc(N(C)C)n2n1 (stereo not drawn) [Example 224] | 1 to 10 | 0.1 to 1 |  |  |
| CCc1cc2c(C3=NNC(=O)CC3C)ccc([S+](C)[O-])n2n1 (stereo not drawn) [Example 249, 6-(2-ethyl-7-methylsulfinyl-pyrazolo[1,5-a]pyridine-4-yl)-4,5-dihydro-5-methyl-3-(2H)-pyridazinone] | 1 to 10 | < 1 | ≥ 90 |  |
| COc1ccc(-c2ccc(=O)[nH]n2)c2cc(C(F)(F)F)nn12 [Example 302, 6-(2-trifluoromethyl-7-methoxy-pyrazolo[1,5-a]pyridine-4-yl)-3-(2H)-pyridazinone] | 1 to 10 | 0.1 to 1 | ≥ 90 |  |
| CCc1cc2c(C3=NNC(=O)CC3C)ccc(OC(C)C)n2n1 (stereo not drawn) [Example 245, 6-(7-isopropoxy-2-ethyl-pyrazolo[1,5-a]pyridine-4-yl)-4,5-dihydro-5-methyl-3-(2H)-pyridazinone] | 1 to 10 | > 10 | ≥ 90 |  |
| COc1ccc(C2=NNC(=O)CC2C)c2cc(C(C)F)nn12 (stereo not drawn) [Example 240, 6-[2-(1-fluoroethyl)-7-methoxy-pyrazolo[1,5-a]pyridine-4-yl]-4,5-dihydro-5-methyl-3-(2H)-pyridazinone] | 1 to 10 | < 1 | ≥ 90 |  |
| CCc1cc2c(C3=NNC(=O)CC3C)ccc(NCCO)n2n1 (stereo not drawn) [Example 247, 6-[2-ethyl-7-(2-hydroxyethylamino)-pyrazolo[1,5-a]pyridine-4-yl]-4,5-dihydro-5-methyl-3-(2H)-pyridazinone] | 1 to 10 | 1 to 10 | 70 to 80 |  |
| C=Cc1cc2c(C3=NNC(=O)CC3C)ccc(OC)n2n1 (stereo not drawn) [Example 239, 6-(7-methoxy-2-vinyl-pyrazolo[1,5-a]pyridine-4-yl)-4,5-dihydro-5-methyl-3-(2H)-pyridazinone] |  |  | ≥ 90 |  |
| CCc1cc2c(C3=NNC(=O)CC3C)ccc(-c3ccccc3)n2n1 (stereo not drawn) [Example 229] | 1 to 10 | 1 to 10 |  |  |
| COc1ccc(-c2n[nH]c(=O)cc2C)c2c(F)c(C(C)C)nn12 [Example 279, 6-(3-fluoro-7-methoxy-2-isopropyl-pyrazolo[1,5-a]pyridine-4-yl)-5-methyl-3-(2H)-pyridazinone] | > 10 | 0.1 to 1 |  |  |
| CCCc1cc2c(C3=NNC(=O)CC3C)ccc(OC)n2n1 (stereo not drawn) [Example 217] | 1 to 10 | 0.1 to 1 | ≥ 90 |  |
| CCc1cc2c(C3=NN(Cc4cccnc4)C(=O)CC3C)cc(F)cn2n1 (stereo not drawn) [Example 287, 6-(2-ethyl-6-fluoro-pyrazolo[1,5-a]pyridine-4-yl)-4,5-dihydro-5-methyl-2-(pyridine-3-ylmethyl)-3-(2H)-pyridazinone] | > 10 | 1 to 10 |  |  |
| CCc1cc2c(C3=NNC(=O)CC3C)ccc(N3CCOCC3)n2n1 (stereo not drawn) [Example 226] | 1 to 10 | > 10 |  |  |
| COCc1cc2c(C3=NNC(=O)CC3C)ccc(OC)n2n1 (stereo not drawn) [Example 220] | 1 to 10 | 0.1 to 1 | ≥ 90 |  |
| CCc1cc2c(C3=NNC(=O)CC3C)ccc(NC)n2n1 (stereo not drawn) [Example 225] | 1 to 10 | < 1 | 80 to 90 |  |
| CCc1cc2c(C3=NNC(=O)CC3C)ccc(NC(C)=O)n2n1 (stereo not drawn) [Example 228] | 1 to 10 | > 10 |  |  |
| COc1ccc(C2=NNC(=O)CC2C)c2cc(C(C)=O)nn12 (stereo not drawn) [Example 241, 6-(2-acetyl-7-methoxy-pyrazolo[1,5-a]pyridine-4-yl)-4,5-dihydro-5-methyl-3-(2H)-pyridazinone] | 1 to 10 | < 1 | ≥ 90 |  |
| COc1ccc(C2=NNC(=O)CC2C)c2cc(C(F)F)nn12 (stereo not drawn) [Example 222] | 1 to 10 | < 1 | 70 to 80 |  |
| CCOc1ccc(C2=NNC(=O)CC2C)c2cc(CC)nn12 (stereo not drawn) [Example 244, 6-(7-ethoxy-2-ethyl-pyrazolo[1,5-a]pyridine-4-yl)-4,5-dihydro-5-methyl-3-(2H)-pyridazinone] | 1 to 10 | 1 to 10 |  |  |
| COc1ccc(-c2nn(C)c(=O)cc2C)c2cc(C(C)C)nn12 [Example 297] | > 10 | < 1 |  |  |

| Structure (SMILES) | IC50 [1] [µmol/L] | IC50 [2] [µmol/L] | inhibition in vivo at 0.1 mg/kg [3] [%] | inhibition in vivo at 1 mg/kg ([3]; test compound 1 mg/kg i.v.) [%] |
| --- | --- | --- | --- | --- |
| CCc1nn2c([S+](C)[O-])ccc(C3=NNC(=O)CC3C)c2c1O (stereo not drawn) [Example 250] | 1 to 10 | 0.1 to 1 | ≥ 90 |  |
| CCc1cc2c(C3=NNC(=O)CC3C)ccc(S(C)(=O)=O)n2n1 (stereo not drawn) [Example 251, 6-(2-ethyl-7-methylsulfonyl-pyrazolo[1,5-a]pyridine-4-yl)-4,5-dihydro-5-methyl-3-(2H)-pyridazinone] | 1 to 10 | 1 to 10 |  |  |
| CCOC(=O)c1ccc(C2=NNC(=O)CC2C)c2cc(CC)nn12 (stereo not drawn) [Example 204] | 1 to 10 | 1 to 10 |  |  |
| COc1ccc(-c2ccc(=O)n(Cc3ccccn3)n2)c2cc(C(C)C)nn12 [Example 274] | > 10 | 0.1 to 1 |  |  |
| COc1ccc(-c2cc(C)c(=O)n(Cc3cccnc3)n2)c2cc(C(C)C)nn12 [Example 299] | > 10 | < 1 |  |  |
| CCc1nn2c(OC)ccc(C3=NNC(=O)CC3C)c2c1Cl (stereo not drawn) [Example 213] | > 10 | 0.1 to 1 |  | 70 to 80 |
| COc1ccc(C2=NNC(=O)CC2C)c2cc(CO)nn12 (stereo not drawn) [Example 221] | 1 to 10 | 1 to 10 |  |  |
| COc1ccc(-c2ccc(=O)n(Cc3ccncc3)n2)c2cc(C(C)C)nn12 [Example 275] | > 10 | 1 to 10 |  |  |
| COc1ccc(C2=NNC(=O)CC2C)c2cc(CF)nn12 (stereo not drawn) [Example 236, 6-(2-fluoromethyl-7-methoxy-pyrazolo[1,5-a]pyridine-4-yl)-4,5-dihydro-5-methyl-3-(2H)-pyridazinone] | 1 to 10 | 0.1 to 1 |  |  |
| CCC1CC(=O)NN=C1c1ccc(OC)n2nc(C(F)(F)F)cc12 (stereo not drawn) [Example 212] | > 10 | < 1 |  |  |
| COc1ccc(-c2n[nH]c(=O)cc2C)c2cc(C(F)(F)F)nn12 [Example 303] | > 10 | 1 to 10 |  |  |
| COc1ccc(C2=NNC(=O)CC2C)c2ccnn12 (stereo not drawn) [Example 214] | < 1 | 1 to 10 | 80 to 90 |  |
| CCc1cc2c(C3=NNC(=O)CC3C)ccc(C(C)=O)n2n1 (stereo not drawn) [Example 235, 6-(7-acetyl-2-ethyl-pyrazolo[1,5-a]pyridine-4-yl)-4,5-dihydro-5-methyl-3-(2H)-pyridazinone] |  |  | ≥ 90 |  |
| CCc1nn2c(S(C)(=O)=O)ccc(C3=NNC(=O)CC3C)c2c1O (stereo not drawn) [Example 252] | 1 to 10 | 1 to 10 |  |  |
| CCc1cc2c(C3=NNC(=O)CC3C)ccc(SC)n2n1 (stereo not drawn) [Example 223] | 1 to 10 | 0.1 to 1 | ≥ 90 |  |
| COc1ccc(C2=NNC(=O)CC2C)c2cc(SC)nn12 (stereo not drawn) [Example 219] |  | 0.1 to 1 | ≥ 90 |  |
| COc1ccc(C2=NNC(=O)CC2C)c2cc(C(C)O)nn12 (stereo not drawn) [Example 238, 6-[2-(1-hydroxyethyl)-7-methoxy-pyrazolo[1,5-a]pyridine-4-yl]-4,5-dihydro-5-methyl-3-(2H)-pyridazinone] | 1 to 10 | < 1 |  |  |
| COc1ccc(C2=NNC(=O)CC2C)c2cc(C3CC3)nn12 (stereo not drawn) [Example 218] | 1 to 10 | 0.1 to 1 | ≥ 90 |  |
| COc1ccc(C2=NNC(=O)CC2C)c2cc(C)nn12 (stereo not drawn) [Example 215] | 1 to 10 | 0.1 to 1 | 80 to 90 |  |

— US7763617B2, “Pyrazolopyridine-4-yl pyridazinone derivatives and addition salts thereof, and PDE inhibitors comprising the same derivatives or salts as active ingredient” (Kyorin Pharmaceutical Co., Ltd., priority 2005, dated 2010)
